Reference: ChEMBL document CHEMBL5252509, “In depth analysis of kinase cross screening data to identify chemical starting points for inhibition of the Nek family of kinases” (Medchemcomm, 2018)

Key:
[1] = biological target: T1, Serine/threonine-protein kinase Nek10 (Homo sapiens) (UniProt Q6ZWH5); experiment: Inhibition of NEK10 (unknown origin) at 1 uM relative to control
T1 sequence (whole entry): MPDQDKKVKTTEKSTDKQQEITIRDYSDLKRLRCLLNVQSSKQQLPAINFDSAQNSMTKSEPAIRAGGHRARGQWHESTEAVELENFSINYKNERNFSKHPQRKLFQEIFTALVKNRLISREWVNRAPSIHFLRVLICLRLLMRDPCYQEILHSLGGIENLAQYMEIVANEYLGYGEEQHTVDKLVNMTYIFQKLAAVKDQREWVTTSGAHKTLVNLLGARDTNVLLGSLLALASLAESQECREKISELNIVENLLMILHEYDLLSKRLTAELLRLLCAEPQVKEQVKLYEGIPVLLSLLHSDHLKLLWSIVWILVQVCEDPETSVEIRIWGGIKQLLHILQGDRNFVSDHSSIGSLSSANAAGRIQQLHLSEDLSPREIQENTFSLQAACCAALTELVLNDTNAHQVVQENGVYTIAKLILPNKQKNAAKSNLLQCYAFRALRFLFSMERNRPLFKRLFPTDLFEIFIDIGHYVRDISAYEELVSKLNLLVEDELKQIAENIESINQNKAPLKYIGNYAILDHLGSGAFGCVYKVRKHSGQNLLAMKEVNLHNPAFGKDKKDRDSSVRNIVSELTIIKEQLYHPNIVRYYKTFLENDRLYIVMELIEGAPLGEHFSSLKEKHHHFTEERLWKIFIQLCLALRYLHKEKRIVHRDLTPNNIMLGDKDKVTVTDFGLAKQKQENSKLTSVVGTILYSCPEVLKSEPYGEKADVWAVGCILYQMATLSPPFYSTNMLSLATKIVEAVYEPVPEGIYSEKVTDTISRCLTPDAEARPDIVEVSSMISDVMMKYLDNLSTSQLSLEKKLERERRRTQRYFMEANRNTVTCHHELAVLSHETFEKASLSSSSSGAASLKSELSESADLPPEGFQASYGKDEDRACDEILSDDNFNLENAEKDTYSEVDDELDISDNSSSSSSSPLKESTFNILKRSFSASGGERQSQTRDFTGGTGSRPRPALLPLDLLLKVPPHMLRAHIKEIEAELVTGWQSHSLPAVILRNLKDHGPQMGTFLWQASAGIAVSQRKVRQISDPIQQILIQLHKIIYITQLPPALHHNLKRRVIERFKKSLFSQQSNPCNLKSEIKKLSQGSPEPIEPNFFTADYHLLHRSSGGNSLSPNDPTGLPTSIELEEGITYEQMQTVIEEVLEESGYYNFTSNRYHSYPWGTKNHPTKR

[2] = biological target: Angiopoietin-1 receptor (Homo sapiens) (UniProt Q02763); experiment: Inhibition of TIE2 (unknown origin) at 1 uM relative to control
Angiopoietin-1 receptor (Homo sapiens), sequence (Q02763 whole entry): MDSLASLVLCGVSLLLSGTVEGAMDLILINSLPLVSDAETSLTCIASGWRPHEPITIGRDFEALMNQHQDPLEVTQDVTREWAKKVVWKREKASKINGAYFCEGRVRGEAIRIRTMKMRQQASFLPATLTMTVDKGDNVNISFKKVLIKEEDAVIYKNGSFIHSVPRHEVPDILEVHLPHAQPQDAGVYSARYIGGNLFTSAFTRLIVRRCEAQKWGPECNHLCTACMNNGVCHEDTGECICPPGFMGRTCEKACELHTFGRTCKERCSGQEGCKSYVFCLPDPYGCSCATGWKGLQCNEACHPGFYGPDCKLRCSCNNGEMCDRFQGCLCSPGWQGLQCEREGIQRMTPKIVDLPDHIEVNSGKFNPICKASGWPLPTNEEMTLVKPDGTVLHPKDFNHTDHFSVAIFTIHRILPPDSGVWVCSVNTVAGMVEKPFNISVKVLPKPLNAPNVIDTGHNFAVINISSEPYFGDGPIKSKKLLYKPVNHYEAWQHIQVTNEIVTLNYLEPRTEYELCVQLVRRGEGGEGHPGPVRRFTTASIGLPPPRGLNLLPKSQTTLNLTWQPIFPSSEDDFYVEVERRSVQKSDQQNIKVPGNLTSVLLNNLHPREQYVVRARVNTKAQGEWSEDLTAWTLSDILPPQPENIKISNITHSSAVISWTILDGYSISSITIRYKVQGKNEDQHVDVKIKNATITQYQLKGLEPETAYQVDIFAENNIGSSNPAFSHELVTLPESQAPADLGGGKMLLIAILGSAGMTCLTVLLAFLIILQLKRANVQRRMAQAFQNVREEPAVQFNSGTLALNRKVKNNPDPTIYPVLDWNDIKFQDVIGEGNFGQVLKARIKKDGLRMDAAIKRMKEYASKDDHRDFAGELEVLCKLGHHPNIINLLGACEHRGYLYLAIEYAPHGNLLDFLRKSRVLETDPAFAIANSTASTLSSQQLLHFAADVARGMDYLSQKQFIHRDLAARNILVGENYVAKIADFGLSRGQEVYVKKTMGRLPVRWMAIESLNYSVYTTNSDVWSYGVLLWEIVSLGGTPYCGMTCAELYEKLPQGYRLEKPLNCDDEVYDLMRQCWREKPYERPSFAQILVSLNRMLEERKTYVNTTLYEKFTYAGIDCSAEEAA

[3] = biological target: T2, Cytoplasmic tyrosine-protein kinase BMX (Homo sapiens) (UniProt P51813); experiment: Inhibition of BMX (unknown origin) at 1 uM relative to control
T2 sequence (whole entry): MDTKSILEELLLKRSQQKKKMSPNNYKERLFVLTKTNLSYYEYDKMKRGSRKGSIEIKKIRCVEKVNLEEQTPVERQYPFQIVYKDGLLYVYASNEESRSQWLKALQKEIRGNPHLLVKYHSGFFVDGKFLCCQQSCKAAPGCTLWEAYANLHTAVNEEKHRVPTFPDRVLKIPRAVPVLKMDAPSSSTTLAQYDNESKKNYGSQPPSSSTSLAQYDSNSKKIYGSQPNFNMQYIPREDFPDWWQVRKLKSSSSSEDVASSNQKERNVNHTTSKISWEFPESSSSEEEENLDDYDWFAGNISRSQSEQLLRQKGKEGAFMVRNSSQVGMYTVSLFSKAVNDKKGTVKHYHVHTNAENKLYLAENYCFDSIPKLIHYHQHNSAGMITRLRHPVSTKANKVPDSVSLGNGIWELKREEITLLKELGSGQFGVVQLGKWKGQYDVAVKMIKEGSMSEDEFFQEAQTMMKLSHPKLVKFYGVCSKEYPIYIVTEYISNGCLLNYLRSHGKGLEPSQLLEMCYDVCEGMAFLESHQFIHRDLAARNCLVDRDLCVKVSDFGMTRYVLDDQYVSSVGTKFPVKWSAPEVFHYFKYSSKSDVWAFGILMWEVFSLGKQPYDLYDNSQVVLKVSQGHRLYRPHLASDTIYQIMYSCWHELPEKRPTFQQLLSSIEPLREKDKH

[4] = biological target: Fibroblast growth factor receptor 3 (Homo sapiens) (UniProt P22607); experiment: Inhibition of FGFR3 (unknown origin) at 1 uM relative to control
Fibroblast growth factor receptor 3 (Homo sapiens), sequence (P22607 23-806 limits assumed): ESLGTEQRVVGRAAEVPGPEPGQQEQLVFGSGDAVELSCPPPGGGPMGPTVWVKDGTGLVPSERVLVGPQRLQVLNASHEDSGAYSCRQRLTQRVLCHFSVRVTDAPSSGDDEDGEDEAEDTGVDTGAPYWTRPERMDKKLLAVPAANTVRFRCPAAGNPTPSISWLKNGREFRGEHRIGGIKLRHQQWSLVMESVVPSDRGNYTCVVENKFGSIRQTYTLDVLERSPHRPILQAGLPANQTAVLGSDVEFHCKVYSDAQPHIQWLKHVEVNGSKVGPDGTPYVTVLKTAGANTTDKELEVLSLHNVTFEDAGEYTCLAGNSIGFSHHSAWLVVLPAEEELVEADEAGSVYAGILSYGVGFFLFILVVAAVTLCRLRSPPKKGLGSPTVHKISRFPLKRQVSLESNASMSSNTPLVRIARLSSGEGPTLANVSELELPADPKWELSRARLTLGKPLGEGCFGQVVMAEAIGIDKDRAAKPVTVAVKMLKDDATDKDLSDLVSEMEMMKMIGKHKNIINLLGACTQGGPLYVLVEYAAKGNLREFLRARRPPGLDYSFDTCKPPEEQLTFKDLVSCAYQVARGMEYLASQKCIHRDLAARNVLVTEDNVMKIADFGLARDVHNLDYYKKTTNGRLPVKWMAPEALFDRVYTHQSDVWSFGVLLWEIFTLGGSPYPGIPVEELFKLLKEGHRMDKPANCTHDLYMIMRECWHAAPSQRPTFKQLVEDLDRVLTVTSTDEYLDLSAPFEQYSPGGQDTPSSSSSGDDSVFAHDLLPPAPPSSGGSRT

[5] = biological target: T3, Mitogen-activated protein kinase kinase kinase 19 (Homo sapiens) (UniProt Q56UN5); experiment: Inhibition of YSK4 (unknown origin) at 1 uM relative to control
T3 sequence (whole entry): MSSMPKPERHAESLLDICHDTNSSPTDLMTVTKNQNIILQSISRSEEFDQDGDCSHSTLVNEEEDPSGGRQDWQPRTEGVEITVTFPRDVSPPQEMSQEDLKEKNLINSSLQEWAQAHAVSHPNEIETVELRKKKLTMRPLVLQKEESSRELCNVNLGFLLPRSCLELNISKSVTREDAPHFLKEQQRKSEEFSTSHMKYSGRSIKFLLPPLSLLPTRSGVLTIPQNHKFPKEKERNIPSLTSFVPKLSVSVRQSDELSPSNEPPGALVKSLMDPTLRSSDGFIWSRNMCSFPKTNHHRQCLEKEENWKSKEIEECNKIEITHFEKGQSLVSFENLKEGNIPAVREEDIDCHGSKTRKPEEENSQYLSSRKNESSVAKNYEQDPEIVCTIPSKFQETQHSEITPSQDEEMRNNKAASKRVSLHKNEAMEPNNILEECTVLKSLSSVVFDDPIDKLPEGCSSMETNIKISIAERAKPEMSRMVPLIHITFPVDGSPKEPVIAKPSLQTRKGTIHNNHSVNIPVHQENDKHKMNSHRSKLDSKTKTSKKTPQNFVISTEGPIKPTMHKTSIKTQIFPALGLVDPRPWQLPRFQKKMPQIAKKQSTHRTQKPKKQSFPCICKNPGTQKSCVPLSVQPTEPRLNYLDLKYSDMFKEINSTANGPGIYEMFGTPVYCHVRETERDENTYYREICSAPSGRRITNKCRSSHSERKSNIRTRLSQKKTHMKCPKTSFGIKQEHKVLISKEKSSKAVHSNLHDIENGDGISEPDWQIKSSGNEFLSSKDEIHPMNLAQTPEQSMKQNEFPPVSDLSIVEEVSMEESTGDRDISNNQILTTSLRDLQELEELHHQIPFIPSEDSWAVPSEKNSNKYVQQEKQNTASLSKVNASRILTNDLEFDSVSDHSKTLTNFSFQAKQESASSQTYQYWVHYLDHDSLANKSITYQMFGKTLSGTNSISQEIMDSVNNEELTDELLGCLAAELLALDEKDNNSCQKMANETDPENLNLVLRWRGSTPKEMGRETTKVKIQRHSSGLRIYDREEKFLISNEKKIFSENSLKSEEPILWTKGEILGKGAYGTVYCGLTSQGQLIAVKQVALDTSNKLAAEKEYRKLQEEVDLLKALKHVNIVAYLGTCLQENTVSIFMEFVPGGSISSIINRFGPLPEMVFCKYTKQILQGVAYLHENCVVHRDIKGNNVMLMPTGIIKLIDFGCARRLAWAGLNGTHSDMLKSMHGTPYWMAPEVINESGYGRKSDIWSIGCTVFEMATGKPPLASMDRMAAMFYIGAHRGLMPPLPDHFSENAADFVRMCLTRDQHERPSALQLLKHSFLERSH

[6] = biological target: T4, Serine/threonine-protein kinase Nek2 (Homo sapiens) (UniProt P51955); experiment: Inhibition of NEK2 (unknown origin) at 1 uM relative to control
T4 sequence (whole entry): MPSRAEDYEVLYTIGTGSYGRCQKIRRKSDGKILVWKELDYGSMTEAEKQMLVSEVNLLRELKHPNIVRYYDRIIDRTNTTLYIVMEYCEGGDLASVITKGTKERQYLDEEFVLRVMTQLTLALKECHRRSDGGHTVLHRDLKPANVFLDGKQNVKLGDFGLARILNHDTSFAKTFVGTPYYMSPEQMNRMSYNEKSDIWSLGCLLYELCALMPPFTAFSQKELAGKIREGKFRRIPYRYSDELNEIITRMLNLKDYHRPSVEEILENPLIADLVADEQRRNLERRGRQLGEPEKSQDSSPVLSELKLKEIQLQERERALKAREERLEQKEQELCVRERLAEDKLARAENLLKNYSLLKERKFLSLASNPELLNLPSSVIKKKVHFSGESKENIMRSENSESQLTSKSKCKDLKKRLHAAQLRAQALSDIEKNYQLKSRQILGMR

[7] = biological target: T5, Serine/threonine-protein kinase Nek3 (Homo sapiens) (UniProt P51956); experiment: Inhibition of NEK3 (unknown origin) at 1 uM relative to control
T5 sequence (whole entry): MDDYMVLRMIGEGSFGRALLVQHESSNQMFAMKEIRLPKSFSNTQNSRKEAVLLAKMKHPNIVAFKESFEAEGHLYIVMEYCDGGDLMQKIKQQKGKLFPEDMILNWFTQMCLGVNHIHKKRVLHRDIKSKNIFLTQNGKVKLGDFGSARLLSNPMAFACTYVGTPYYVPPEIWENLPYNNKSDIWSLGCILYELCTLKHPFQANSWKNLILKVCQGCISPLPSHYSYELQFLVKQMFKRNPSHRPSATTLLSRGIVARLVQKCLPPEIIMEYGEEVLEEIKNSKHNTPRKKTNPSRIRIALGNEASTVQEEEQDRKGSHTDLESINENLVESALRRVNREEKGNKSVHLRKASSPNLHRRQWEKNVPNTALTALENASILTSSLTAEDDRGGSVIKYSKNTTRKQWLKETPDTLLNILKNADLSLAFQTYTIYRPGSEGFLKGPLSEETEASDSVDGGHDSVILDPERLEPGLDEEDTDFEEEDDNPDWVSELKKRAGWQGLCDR

[8] = biological target: T6, Serine/threonine-protein kinase Nek5 (Homo sapiens) (UniProt Q6P3R8); experiment: Inhibition of NEK5 (unknown origin) at 1 uM relative to control
T6 sequence (whole entry): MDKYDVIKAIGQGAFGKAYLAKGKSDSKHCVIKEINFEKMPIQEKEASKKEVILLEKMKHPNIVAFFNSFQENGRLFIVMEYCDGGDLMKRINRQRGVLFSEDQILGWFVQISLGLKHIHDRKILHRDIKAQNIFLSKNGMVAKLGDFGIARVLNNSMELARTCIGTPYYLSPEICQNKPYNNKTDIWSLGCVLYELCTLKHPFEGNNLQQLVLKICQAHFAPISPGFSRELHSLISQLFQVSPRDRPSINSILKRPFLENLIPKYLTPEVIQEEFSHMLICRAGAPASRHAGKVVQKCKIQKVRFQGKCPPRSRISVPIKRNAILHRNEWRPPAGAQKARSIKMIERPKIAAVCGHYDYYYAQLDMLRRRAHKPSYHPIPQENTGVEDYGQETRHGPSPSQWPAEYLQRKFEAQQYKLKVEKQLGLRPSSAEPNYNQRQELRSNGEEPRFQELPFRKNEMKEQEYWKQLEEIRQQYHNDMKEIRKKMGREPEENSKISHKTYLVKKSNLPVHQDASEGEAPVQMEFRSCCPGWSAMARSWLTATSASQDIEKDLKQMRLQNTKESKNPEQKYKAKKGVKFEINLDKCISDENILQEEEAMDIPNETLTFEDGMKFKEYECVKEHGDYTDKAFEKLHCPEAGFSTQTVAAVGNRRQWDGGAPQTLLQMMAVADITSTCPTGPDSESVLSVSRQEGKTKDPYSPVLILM

[9] = biological target: Serine/threonine-protein kinase Nek6 (Homo sapiens) (UniProt Q9HC98); experiment: Inhibition of NEK6 (unknown origin) at 1 uM relative to control
Serine/threonine-protein kinase Nek6 (Homo sapiens), sequence (Q9HC98 whole entry): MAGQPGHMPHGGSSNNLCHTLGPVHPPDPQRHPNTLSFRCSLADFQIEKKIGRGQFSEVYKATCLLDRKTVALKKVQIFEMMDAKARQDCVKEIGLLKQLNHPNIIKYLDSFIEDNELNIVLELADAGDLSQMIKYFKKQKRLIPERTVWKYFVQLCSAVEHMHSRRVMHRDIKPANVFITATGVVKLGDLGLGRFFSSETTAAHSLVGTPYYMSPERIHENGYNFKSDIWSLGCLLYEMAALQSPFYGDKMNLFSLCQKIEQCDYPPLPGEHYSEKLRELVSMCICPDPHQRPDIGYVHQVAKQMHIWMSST

[10] = biological target: Serine/threonine-protein kinase Nek7 (Homo sapiens) (UniProt Q8TDX7); experiment: Inhibition of NEK7 (unknown origin) at 1 uM relative to control
Serine/threonine-protein kinase Nek7 (Homo sapiens), sequence (Q8TDX7 whole entry, looked up): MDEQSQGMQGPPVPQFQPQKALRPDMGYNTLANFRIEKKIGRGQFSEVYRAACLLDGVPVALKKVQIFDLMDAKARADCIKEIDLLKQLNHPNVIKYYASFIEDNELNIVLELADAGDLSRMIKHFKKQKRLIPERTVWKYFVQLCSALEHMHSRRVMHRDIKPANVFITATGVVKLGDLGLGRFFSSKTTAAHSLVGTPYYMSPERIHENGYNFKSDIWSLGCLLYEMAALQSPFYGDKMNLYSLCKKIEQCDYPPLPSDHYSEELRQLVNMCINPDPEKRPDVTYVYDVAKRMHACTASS

[11] = biological target: T7, Serine/threonine-protein kinase Nek11 (Homo sapiens) (UniProt Q8NG66); experiment: Inhibition of NEK11 (unknown origin) at 1 uM relative to control
T7 sequence (whole entry): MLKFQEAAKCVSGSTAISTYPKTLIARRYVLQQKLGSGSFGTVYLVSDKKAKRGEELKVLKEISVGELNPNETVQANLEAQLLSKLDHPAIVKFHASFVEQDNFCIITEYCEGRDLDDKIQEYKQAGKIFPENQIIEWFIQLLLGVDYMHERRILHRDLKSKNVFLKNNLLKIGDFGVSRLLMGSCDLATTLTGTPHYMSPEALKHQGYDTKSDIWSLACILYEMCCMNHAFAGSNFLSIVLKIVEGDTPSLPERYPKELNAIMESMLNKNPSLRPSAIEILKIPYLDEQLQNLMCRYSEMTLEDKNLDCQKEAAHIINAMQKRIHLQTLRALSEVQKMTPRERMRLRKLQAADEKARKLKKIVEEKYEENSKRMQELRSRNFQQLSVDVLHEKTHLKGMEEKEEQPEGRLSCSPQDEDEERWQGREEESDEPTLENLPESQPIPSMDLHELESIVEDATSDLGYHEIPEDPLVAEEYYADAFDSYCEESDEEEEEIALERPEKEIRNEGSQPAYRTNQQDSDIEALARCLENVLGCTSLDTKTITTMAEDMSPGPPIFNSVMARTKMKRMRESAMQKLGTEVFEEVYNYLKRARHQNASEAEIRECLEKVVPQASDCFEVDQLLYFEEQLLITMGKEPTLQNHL

SMILES	inhibition [1] [%]	inhibition [2] [%]	inhibition [3] [%]	inhibition [4] [%]	inhibition [5] [%]	inhibition [6] [%]	inhibition [7] [%]	inhibition [8] [%]	inhibition [9] [%]	inhibition [10] [%]	inhibition [11] [%]
Cn1cc(-c2cccc3c(N)c(C(N)=O)nnc23)cn1	48	1	15	12	94.4	–	–	–	–	–	–
CC[C@@H]1C(=O)N(C)c2cnc(Nc3ccc(C(=O)NC4CCN(C)CC4)cc3OC)nc2N1C1CCCC1	–	–	–	–	–	72	–	–	–	–	–
CC(C)(C)c1nc(-c2cccc(NS(=O)(=O)c3c(F)cccc3F)c2F)c(-c2ccnc(N)n2)s1	56	–	–	–	–	7	100	75	0.3	1.6	0.2
NC(=O)c1nnc2ccccc2c1N	85	98.7	90.1	90	88	–	–	–	–	–	–
Cc1cc2cn[nH]c2cc1-c1cccc2c(N)c(C(N)=O)nnc12	86	31	83	0	71	–	–	–	–	–	–
